According to patent US20240307409A1, “ARGININE METHYLTRANSFERASE INHIBITOR AND USE THEREOF” (Cytosinlab Therapeutics Co., Ltd., priority 2021, published 2024):
pIC50: −log10 of the molar value.

Key:
Toledo cells = assay: Toledo cell proliferation inhibition assay; type: cell-based; conditions: Homo sapiens, Toledo, 144 h; six-day assay, CellTiter-Glo
Method in brief: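 Toledo cells seeded at 2000 cells/well in RPMI 1640 + 10% FBS and incubated with compound for six days at 37° C, 5% CO2. Viability was then read by CellTiter-Glo luminescence after 30 min orbital mixing.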

PRMT1 = PRMT1 (Homo sapiens, UniProt Q99873); assay: PRMT1 enzyme activity test; type: biochemical; conditions: 0.5 nM PRMT1, 3H-SAM, peptide
PRMT1, sequence (Q99873 whole entry): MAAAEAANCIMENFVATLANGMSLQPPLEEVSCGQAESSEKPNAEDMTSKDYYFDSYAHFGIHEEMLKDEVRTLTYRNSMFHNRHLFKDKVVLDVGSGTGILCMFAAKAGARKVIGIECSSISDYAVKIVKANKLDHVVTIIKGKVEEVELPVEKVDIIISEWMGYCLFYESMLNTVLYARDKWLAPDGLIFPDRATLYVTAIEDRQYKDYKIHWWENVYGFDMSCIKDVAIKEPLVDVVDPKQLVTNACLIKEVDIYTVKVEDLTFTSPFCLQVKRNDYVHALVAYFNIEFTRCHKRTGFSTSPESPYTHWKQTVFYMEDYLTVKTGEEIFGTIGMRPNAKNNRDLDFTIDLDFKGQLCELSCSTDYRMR
Method in brief: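 Radiometric methylation assay: 0.5 nM PRMT1 preincubated 15 min at room temperature with compound (10-point 3-fold series, 1% DMSO) in pH 8.0 Tris buffer with Tween-20 and DTT. 0.25 uM ³H-SAM and 0.1 uM biotinylated peptide then reacted 120 min. Product captured on streptavidin FlashPlate and counted; IC50 from four-parameter fit of % inhibition.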

In the case of `CNCCN(C)Cc1ncccc1C1CCN(c2ccncc2)CC1` [P215], the pIC50 (Toledo cells) was 5.30 to 6.00 and the pIC50 (PRMT1) was > 7.30.
In the case of `CNCCN(C)Cc1ncccc1C1CCN(c2ccccn2)CC1` [P216], the pIC50 (Toledo cells) was 5.30 to 6.00 and the pIC50 (PRMT1) was > 7.30.
With `CCOCC1CCCN(c2cccnc2CN(C)CCNC)C1` (centres unmarked) [P217] the pIC50 (Toledo cells) was 5.30 to 6.00 and the pIC50 (PRMT1) was 6.30 to 7.30.
In the case of `CCOCC1CCN(c2cccnc2CN(C)CCNC)CC1` [P218], the pIC50 (Toledo cells) was 5.30 to 6.00 and the pIC50 (PRMT1) was > 7.30.
With `CNCCN(C)Cc1ccc(C(N)=O)cc1C1CCN(c2cccc(C)c2)CC1` [P221] the pIC50 (Toledo cells) was > 6.00 and the pIC50 (PRMT1) was > 7.30.
For `CCN1CC2(CCC(c3cccnc3CN(C)CCNC)CC2)CC1=O` (centres unmarked) [P222], the pIC50 (Toledo cells) was ≤ 5.30 and the pIC50 (PRMT1) was > 7.30.
`CNCCN(C)Cc1ncccc1N1CCC(OC(C)C)CC1` [P224] was tested, and the pIC50 (Toledo cells) was 5.30 to 6.00 and the pIC50 (PRMT1) was > 7.30.
In the case of `CNCCN(C)Cc1nc(N)ccc1C1CCN(c2cccc(C)c2)CC1` [P227], the pIC50 (Toledo cells) was > 6.00 and the pIC50 (PRMT1) was > 7.30.
In the case of `CNCCN(C)Cc1ccc2[nH]ncc2c1N1CCc2ccccc2CC1` [P228], the pIC50 (Toledo cells) was > 6.00 and the pIC50 (PRMT1) was > 7.30.
In the case of `CNCCN(C)Cc1ncccc1N1CCC(Oc2ccccc2OC(F)(F)F)CC1` [P230], the pIC50 (Toledo cells) was > 6.00 and the pIC50 (PRMT1) was > 7.30.
`CNCCN(C)Cc1ncccc1N1CCCC(OC)CC1` (centres unmarked) [P233] was tested, and the pIC50 (Toledo cells) was ≤ 5.30 and the pIC50 (PRMT1) was > 7.30.
`CNCCN(C)Cc1ncccc1C1CCN(c2ccc3c(c2)OC(C)(C)O3)CC1` [P234] showed a pIC50 (Toledo cells) of 5.30 to 6.00 and a pIC50 (PRMT1) of 6.30 to 7.30.
`CNCCN(C)Cc1ncccc1N1CCC(Oc2cccc(OC)c2)CC1` [P238] was tested, and the pIC50 (Toledo cells) was > 6.00 and the pIC50 (PRMT1) was > 7.30.
`CNCCN(C)Cc1ncccc1C1CCN(c2nc(C)nc3ccccc23)CC1` [P239] was tested, and the pIC50 (Toledo cells) was 5.30 to 6.00 and the pIC50 (PRMT1) was > 7.30.
In the case of `CNCCN(C)Cc1ncccc1C1CCN(c2nc(C)cc(N3CCCC3)n2)CC1` [P242], the pIC50 (Toledo cells) was > 6.00 and the pIC50 (PRMT1) was > 7.30.
`CCOCC1(COCC)CCN(c2cccnc2CN(C)CCNC)C1` [P248] gave a pIC50 (Toledo cells) of 5.30 to 6.00 and a pIC50 (PRMT1) of 6.30 to 7.30.
With `CNCCN(C)Cc1ncccc1C1CCN(c2cccc(C(=O)NC)c2)CC1` [P254] the pIC50 (Toledo cells) was ≤ 5.30 and the pIC50 (PRMT1) was 6.30 to 7.30.
`CNCCN(C)Cc1ncccc1C1CCN(c2ccc(C(=O)NC)cc2)CC1` [P255] was tested, and the pIC50 (Toledo cells) was 5.30 to 6.00 and the pIC50 (PRMT1) was > 7.30.
For `CNCCN(C)Cc1ncccc1N1CCC(Oc2ccc(-n3ccnc3)cc2)CC1` [P259], the pIC50 (Toledo cells) was 5.30 to 6.00 and the pIC50 (PRMT1) was > 7.30.
`CNCCN(C)Cc1ncccc1N1CCCOCC1` [P260] was tested, and the pIC50 (Toledo cells) was 5.30 to 6.00 and the pIC50 (PRMT1) was > 7.30.
With `CNCCN(C)Cc1ncccc1C1CCN(c2cc(C)nc(C)n2)CC1` [P262] the pIC50 (Toledo cells) was 5.30 to 6.00 and the pIC50 (PRMT1) was > 7.30.
`CNCCN(C)Cc1ncccc1N1CCC(NC2CCOCC2)CC1` [P263] was tested, and the pIC50 (Toledo cells) was ≤ 5.30 and the pIC50 (PRMT1) was ≤ 6.30.
In the case of `CCOCC1(COCC)CCC(c2c(CN(C)CCNC)ccc3[nH]ncc23)CC1` [P266, N1-((4-(4,4-bis(ethoxymethyl)cyclohexyl)-1H-indazol-5-yl)methyl)-N1,N2-dimethylethane-1,2-diamine], the pIC50 (Toledo cells) was > 6.00 and the pIC50 (PRMT1) was > 7.30.
With `CNCCN(C)Cc1ncccc1N1CCC(Oc2ccncc2)CC1` [P267] the pIC50 (Toledo cells) was 5.30 to 6.00 and the pIC50 (PRMT1) was > 7.30.
`CNCCN(C)Cc1ncccc1N1CCC(Oc2ccccn2)CC1` [P268] was tested, and the pIC50 (Toledo cells) was 5.30 to 6.00 and the pIC50 (PRMT1) was > 7.30.
In the case of `CNCCN(C)Cc1ncccc1N1CCC(Oc2cccnc2)CC1` [P269], the pIC50 (Toledo cells) was 5.30 to 6.00 and the pIC50 (PRMT1) was > 7.30.
With `CNCCN(C)Cc1ncccc1N1CCc2ccc(NC(C)=O)cc2CC1` [P270] the pIC50 (Toledo cells) was 5.30 to 6.00 and the pIC50 (PRMT1) was > 7.30.
For `CNCCN(C)Cc1ncccc1C1COc2ccccc2OC1` [P271], the pIC50 (Toledo cells) was 5.30 to 6.00 and the pIC50 (PRMT1) was > 7.30.
For `CNCCN(C)Cc1ncccc1N1CCc2nc(N(C)C)nc(C)c2CC1` [P272], the pIC50 (Toledo cells) was 5.30 to 6.00 and the pIC50 (PRMT1) was 6.30 to 7.30.
In the case of `CCOC(=O)C1(CC)CCN(c2cccnc2CN(C)CCNC)CC1` [P273], the pIC50 (Toledo cells) was 5.30 to 6.00 and the pIC50 (PRMT1) was > 7.30.
With `CNCCN(C)Cc1ncccc1N1CCC(N2CCC(C(=O)NC)CC2)CC1` [P275] the pIC50 (Toledo cells) was ≤ 5.30 and the pIC50 (PRMT1) was ≤ 6.30.
For `CNCCN(C)Cc1ncccc1N1CCC(N2CCCC(C(=O)NC)C2)CC1` (centres unmarked) [P276], the pIC50 (Toledo cells) was ≤ 5.30 and the pIC50 (PRMT1) was ≤ 6.30.
`CNCCN(C)Cc1ncccc1C1CCN(c2ccnc(C)n2)CC1` [P277] was tested, and the pIC50 (Toledo cells) was > 6.00 and the pIC50 (PRMT1) was > 7.30.
In the case of `CNCCN(C)Cc1ncccc1C1CCN(c2nccc(C)n2)CC1` [P278], the pIC50 (Toledo cells) was 5.30 to 6.00 and the pIC50 (PRMT1) was > 7.30.
For `CNCCN(C)Cc1ncccc1C1CCN(c2cc(C)ncn2)CC1` [P279], the pIC50 (Toledo cells) was 5.30 to 6.00 and the pIC50 (PRMT1) was > 7.30.
In the case of `CNCCN(C)Cc1ncccc1N1CCc2nc(C)nc(C)c2CC1` [P280], the pIC50 (Toledo cells) was ≤ 5.30 and the pIC50 (PRMT1) was > 7.30.
In the case of `CNCCN(C)Cc1ncccc1N1CC[C@H](OC)[C@H](OC)CC1` [P281], the pIC50 (Toledo cells) was ≤ 5.30 and the pIC50 (PRMT1) was 6.30 to 7.30.
For `CNCCN(C)Cc1ncccc1C1CCN(c2ccc(S(C)(=O)=O)cc2)CC1` [P284], the pIC50 (Toledo cells) was 5.30 to 6.00 and the pIC50 (PRMT1) was > 7.30.
`CNCCN(C)Cc1ncccc1C1CCN(c2cccc(C(=O)O)c2)CC1` [P285] was tested, and the pIC50 (Toledo cells) was ≤ 5.30 and the pIC50 (PRMT1) was ≤ 6.30.
With `CNCCN(C)Cc1ncccc1N1CCc2cnc(N(C)C)nc2CC1` [P286] the pIC50 (Toledo cells) was 5.30 to 6.00 and the pIC50 (PRMT1) was > 7.30.
In the case of `CNCCN(C)Cc1ncccc1C1CCN(c2ccncn2)CC1` [P287], the pIC50 (Toledo cells) was > 6.00 and the pIC50 (PRMT1) was > 7.30.
With `CNCCN(C)Cc1ncccc1C1CCN(c2cnccn2)CC1` [P288] the pIC50 (Toledo cells) was 5.30 to 6.00 and the pIC50 (PRMT1) was > 7.30.
For `CNCCN(C)Cc1ncccc1C1CCN(c2ncccn2)CC1` [P290], the pIC50 (Toledo cells) was 5.30 to 6.00 and the pIC50 (PRMT1) was > 7.30.
For `CNCCN(C)Cc1ncccc1N1CCc2cnc(C)nc2CC1` [P291], the pIC50 (Toledo cells) was ≤ 5.30 and the pIC50 (PRMT1) was > 7.30.
With `CNCCN(C)Cc1ncc(N)nc1C1CCN(c2cccc(C)c2)CC1` [P292, N-((5-amino-3-(1-(m-tolyl)piperidin-4-yl)pyrazin-2-yl)methyl)-N,N′-dimethyl-1,2-ethyle nediamine] the pIC50 (Toledo cells) was > 6.00 and the pIC50 (PRMT1) was > 7.30.
For `CCOCC1(COCC)CCC(c2nc(N)ccc2CN(C)CCNC)CC1` [P293, N1-((6-amino-2-(4,4-bis(ethoxymethyl)cyclohexyl)pyridin-3-yl)methyl)-N1,N2-dimethyle thane-1,2-diamine], the pIC50 (Toledo cells) was > 6.00 and the pIC50 (PRMT1) was 6.30 to 7.30.
`CNCCN(C)Cc1ncccc1C1CCN(c2cccc(C(N)=O)c2)CC1` [P297] was tested, and the pIC50 (Toledo cells) was ≤ 5.30 and the pIC50 (PRMT1) was > 7.30.
In the case of `CNCCN(C)Cc1ncccc1C1CCN(c2ccccc2C(N)=O)CC1` [P298], the pIC50 (Toledo cells) was 5.30 to 6.00 and the pIC50 (PRMT1) was > 7.30.
For `CCC1(C(=O)NC)CCN(c2cccnc2CN(C)CCNC)CC1` [P300], the pIC50 (Toledo cells) was ≤ 5.30 and the pIC50 (PRMT1) was 6.30 to 7.30.
In the case of `CCOC(=O)C1CCN(c2cccnc2CN(C)CCNC)CC1` [P301], the pIC50 (Toledo cells) was 5.30 to 6.00 and the pIC50 (PRMT1) was > 7.30.
`CNCCN(C)Cc1ncccc1N1CCC(CC(=O)OC)CC1` [P302] was tested, and the pIC50 (Toledo cells) was 5.30 to 6.00 and the pIC50 (PRMT1) was > 7.30.
With `CNCCN(C)Cc1ncccc1N1CCC(=CC(=O)OC)CC1` [P303] the pIC50 (Toledo cells) was 5.30 to 6.00 and the pIC50 (PRMT1) was > 7.30.
With `CNCCN(C)Cc1ncccc1N1CCc2nc(OC)cc(OC)c2CC1` [P304] the pIC50 (Toledo cells) was 5.30 to 6.00 and the pIC50 (PRMT1) was > 7.30.
`CNCCN(C)Cc1ncccc1N1CCC(COc2cnc(C)nc2)CC1` [P305] was tested, and the pIC50 (Toledo cells) was > 6.00 and the pIC50 (PRMT1) was > 7.30.
For `CNCCN(C)Cc1ncccc1N1CCC(COc2ccnc(C)n2)CC1` [P306], the pIC50 (Toledo cells) was 5.30 to 6.00 and the pIC50 (PRMT1) was 6.30 to 7.30.
With `CNCCN(C)Cc1ncccc1N1CCC(Oc2cnc(C)nc2)CC1` [P313] the pIC50 (Toledo cells) was 5.30 to 6.00 and the pIC50 (PRMT1) was > 7.30.
With `CNCCN(C)Cc1ncccc1N1CCC(Oc2ccnc(C)n2)CC1` [P314] the pIC50 (Toledo cells) was ≤ 5.30 and the pIC50 (PRMT1) was > 7.30.
In the case of `CCC1(C(=O)O)CCN(c2cccnc2CN(C)CCNC)CC1` [P315], the pIC50 (Toledo cells) was ≤ 5.30 and the pIC50 (PRMT1) was ≤ 6.30.
In the case of `CNCCN(C)Cc1ncccc1C1CCN(c2cnc(C#N)nc2)CC1` [P318], the pIC50 (Toledo cells) was ≤ 5.30 and the pIC50 (PRMT1) was > 7.30.
For `CNCCN(C)Cc1ncccc1N1CCC(Nc2ccncn2)CC1` [P319], the pIC50 (Toledo cells) was ≤ 5.30 and the pIC50 (PRMT1) was > 7.30.
For `CNCCN(C)Cc1ncccc1N1CCc2cnc(NC)nc2CC1` [P320], the pIC50 (Toledo cells) was ≤ 5.30 and the pIC50 (PRMT1) was > 7.30.
`CNCCN(C)Cc1ncccc1C1CCN(c2cc(C)nc(N)n2)CC1` [P321] was tested, and the pIC50 (Toledo cells) was 5.30 to 6.00 and the pIC50 (PRMT1) was > 7.30.
For `CNCCN(C)Cc1ncccc1C1CCN(c2ccnc(N)n2)CC1` [P326], the pIC50 (Toledo cells) was 5.30 to 6.00 and the pIC50 (PRMT1) was > 7.30.
With `CNCCN(C)Cc1ncccc1N1CCc2nc(SC)nc(O)c2CC1` [P329] the pIC50 (Toledo cells) was ≤ 5.30 and the pIC50 (PRMT1) was 6.30 to 7.30.
